Data: patent US7741124B2, “Detection procedures for fibrinogen and/or fibrinogen derivatives” (priority 2003, dated 2010)

Tests used:
Assay type in all cases: biochemical
[1] = target: T1, fibrinogen in human plasma (Homo sapiens, UniProt P02671+P02675+P02679); test: Inactivation of fibrinogen by vancomycin or chloramine-T (FIFTA read-out); conditions: 15 min 37° C. incubation in plasma, then FIFTA; read-out: IC50 against plasmatic fibrinogen
T1 construct: 200 μl of 256% of norm active fibrinogen in P-Pool; from tissue; host or cells: pooled citrated human patient plasma (P-Pool / Fbgen-Pool)
T1 sequence (P02671 20-629 isoform P02671-2 limits assumed): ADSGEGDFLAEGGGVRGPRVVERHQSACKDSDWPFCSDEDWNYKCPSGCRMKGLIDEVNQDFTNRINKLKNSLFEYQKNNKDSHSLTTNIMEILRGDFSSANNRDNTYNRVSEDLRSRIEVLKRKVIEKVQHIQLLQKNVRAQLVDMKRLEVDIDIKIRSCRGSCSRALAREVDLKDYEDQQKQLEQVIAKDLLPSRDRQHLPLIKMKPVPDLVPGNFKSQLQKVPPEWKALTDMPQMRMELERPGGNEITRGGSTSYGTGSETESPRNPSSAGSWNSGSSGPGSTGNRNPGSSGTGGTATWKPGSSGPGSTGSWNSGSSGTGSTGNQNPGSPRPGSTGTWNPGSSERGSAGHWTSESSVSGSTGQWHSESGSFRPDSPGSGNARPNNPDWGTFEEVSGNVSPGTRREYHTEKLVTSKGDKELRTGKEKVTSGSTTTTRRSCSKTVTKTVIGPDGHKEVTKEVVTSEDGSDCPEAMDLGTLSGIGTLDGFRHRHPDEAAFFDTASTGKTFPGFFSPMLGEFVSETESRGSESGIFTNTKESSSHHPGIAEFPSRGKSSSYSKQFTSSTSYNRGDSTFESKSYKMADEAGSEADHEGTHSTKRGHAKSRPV
T1 sequence (P02675 31-491): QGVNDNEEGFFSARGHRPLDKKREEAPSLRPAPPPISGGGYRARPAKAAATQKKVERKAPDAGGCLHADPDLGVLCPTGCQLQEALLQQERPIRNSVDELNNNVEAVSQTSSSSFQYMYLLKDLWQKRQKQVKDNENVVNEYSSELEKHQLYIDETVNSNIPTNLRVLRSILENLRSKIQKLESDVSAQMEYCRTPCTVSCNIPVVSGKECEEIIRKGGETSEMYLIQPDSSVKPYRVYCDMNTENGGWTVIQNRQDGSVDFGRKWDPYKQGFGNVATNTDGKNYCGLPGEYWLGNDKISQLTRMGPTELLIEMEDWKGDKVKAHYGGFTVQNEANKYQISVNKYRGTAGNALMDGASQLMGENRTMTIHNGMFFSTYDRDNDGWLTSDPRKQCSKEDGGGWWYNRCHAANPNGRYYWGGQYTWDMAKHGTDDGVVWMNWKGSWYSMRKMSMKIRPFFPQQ
T1 sequence (P02679 27-437 isoform P02679-2 limits assumed): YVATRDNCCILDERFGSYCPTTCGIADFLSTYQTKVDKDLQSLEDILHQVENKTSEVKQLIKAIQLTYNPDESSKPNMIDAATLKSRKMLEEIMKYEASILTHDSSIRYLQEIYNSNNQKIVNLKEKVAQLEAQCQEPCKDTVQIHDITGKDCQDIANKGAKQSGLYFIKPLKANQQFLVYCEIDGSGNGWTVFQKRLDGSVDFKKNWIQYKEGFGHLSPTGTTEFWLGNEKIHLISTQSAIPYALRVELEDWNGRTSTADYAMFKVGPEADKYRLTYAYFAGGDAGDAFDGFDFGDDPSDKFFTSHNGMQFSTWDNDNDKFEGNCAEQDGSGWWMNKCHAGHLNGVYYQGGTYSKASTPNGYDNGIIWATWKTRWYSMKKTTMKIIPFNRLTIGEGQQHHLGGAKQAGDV
Experimental: 200 μl of 256% of norm active fibrinogen in P-Pool were incubated with 25 μl 0-100 mM vancomycin or 0-100 mM chloramine-T® in aqua dest. for 15 min (37° C.). 50 μl samples of these reaction mixtures were withdrawn and incubated with 100 μl 200 mIU/ml thrombin, 400 μg/ml Polybrene®, 6% BSA-PBS. The results were standardized by simultaneous analysis of 144% of norm active fibrinogen in P-Pool.

[2] = target: T2, fibrinogen (Homo sapiens, UniProt P02671+P02675+P02679); test: FIFTA of chloramine-T oxidized / EDTA-supplemented plasma; conditions: 60 min RT, P-Pool and EDTA supplemented P-Pool; read-out: chloramine-T concentration that inactivates 50% of fibrinogen in the FIFTA
T2 construct: pooled patient plasma (P-Pool, n=32 single plasmas); from tissue; host or cells: pooled citrated patient plasma (P-Pool, Fbgen-Pool-Plasma)
T2 sequence (P02671 20-644 isoform P02671-2 limits assumed): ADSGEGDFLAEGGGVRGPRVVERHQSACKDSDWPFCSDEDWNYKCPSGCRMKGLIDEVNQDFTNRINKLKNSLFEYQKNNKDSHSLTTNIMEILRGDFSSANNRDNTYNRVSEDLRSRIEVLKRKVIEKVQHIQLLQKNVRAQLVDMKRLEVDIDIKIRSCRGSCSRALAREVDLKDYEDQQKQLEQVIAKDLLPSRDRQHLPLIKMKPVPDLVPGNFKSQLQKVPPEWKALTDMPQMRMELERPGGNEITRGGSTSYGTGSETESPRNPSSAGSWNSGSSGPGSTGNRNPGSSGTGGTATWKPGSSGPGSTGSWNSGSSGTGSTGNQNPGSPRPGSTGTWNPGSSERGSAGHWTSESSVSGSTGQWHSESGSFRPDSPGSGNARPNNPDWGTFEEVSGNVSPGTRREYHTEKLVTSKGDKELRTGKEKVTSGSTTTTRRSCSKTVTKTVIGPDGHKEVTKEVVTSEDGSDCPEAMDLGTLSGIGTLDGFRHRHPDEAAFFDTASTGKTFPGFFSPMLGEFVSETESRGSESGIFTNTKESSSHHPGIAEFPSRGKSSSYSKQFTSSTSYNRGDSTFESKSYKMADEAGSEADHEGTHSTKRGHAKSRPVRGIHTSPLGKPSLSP
T2 sequence (P02675 31-491): T1 sequence (P02675 31-491)
T2 sequence (P02679 27-437 isoform P02679-2 limits assumed): T1 sequence (P02679 27-437 isoform P02679-2 limits assumed)
Experimental: The absorption at 405 nm is immediately measured (base value) and exactly after 5 min, if the reaction is performed at room temperature (23° C.). If the reaction is performed at 37° C., the second value is measured after 2 min. A microtiterplate reader (Milenia, DPC, Los Angeles, USA) is used. The increase in absorption (ΔA) is determined and the results are standardized against a pooled plasma of known, preferably of 100% of norm, fibrinogen-activity (Table 1).
(§1) 25 μl P-Pool or P-Pool supplemented with 8.6 mM (3.2 g/l) EDTA were incubated with 25 μl 0-89 mM chloramine-T® in PBS for 60 min at RT. Then the FIATA and the FIFTA were performed. For the FIATA, 25 μl PBS were added and the absorbance at 405 nm was determined (base value). 50 μl 4.4 mM vancomycin in PBS were added and after 1 min (RT) the absorbance at 405 nm was determined again (Table 1). […] 100% control=P-Pool without oxidant.
(§2) 25 μl P-Pool was incubated with 25 μl PBS or with 25 μl 2 mM CT in PBS. After 60 min RT, 25 μl 0-172 mM EDTA in PBS was added. After 5 min RT the FIATA and the FIFTA were performed as indicated in 2.7.

[3] = tested on: fibrinogen; test: FIATA (vancomycin reactivity) of chloramine-T oxidized / EDTA-supplemented plasma; conditions: EDTA-plasmas oxidized at 10-20 mM chloramine-T
Experimental: To 25 μl plasma 50 μl PBS are added and the absorbance (405 nm) is determined (base value). Then 50 μl 4.4 mM vancomycin in PBS are added. The absorbance at 405 nm is determined after 2 min, if the reaction is performed at room temperature (23° C.). If the reaction is performed at 37° C., the second value is determined after 1 min. A microtiterplate reader (Milenia, DPC, Los Angeles, USA) is used. The increase in absorption (ΔA) is determined and the results are standardized against a pooled plasma of known, preferably of 100% of norm, fibrinogen-concentration, and against 0.9% NaCl (zero-value of turbidity) (Table 2).
as §1, §2

[4] = target: T3, thrombin (Bos taurus, UniProt P00735); test: Inhibitory concentration 50% (IC50) of heparin against thrombin, FIFTA turbidity without Polybrene; conditions: FIFTA system without Polybrene
T3 construct: 100 μl 200 mIU/ml thrombin in 6% BSA-PBS (without Polybrene®)
Experimental: 50 μl 100% Pool were added to 10 μl 0-160 IU/ml heparin. 100 μl 200 mIU/ml thrombin in 6% BSA-PBS (without Polybrene®) were added and the increase in absorbance at 405 nm was followed.

[5] = target: T3, thrombin; test: Inhibitory time point 50% (ITP50) of 10 IU/ml heparin-thrombin interaction; conditions: 10 IU/ml final heparin
Experimental: 50 μl P-Pool were incubated with 100 μl 200 miU/ml thrombin in 6% BSA-PBS (without Polybrene®). At 0 min (prior to thrombin addition) and 0.5-11 min reaction time (at RT) 10 μl 160 IU/ml heparin in 6% BSA-PBS was added (final heparin conc. in plasma+thrombin reagent=10 IU/ml; this heparin conc. increased the absorbance by 20 mA; all test results were corrected by this heparin induced turbidity increase). The turbidity increase at 405 nm was determined immediately after each heparin addition step and as a function of incubation time.
To determine the heparin addition time point (at RT) that is needed to decrease the 5 min, 10 min, 15 min or 20 min turbidity increase by 50% (inhibitory time point 50%=ITP), 50 μl P-Pool were incubated with 100 μl 200 mIU/ml thrombin in 6% BSA-PBS (without Polybrene®). After 0 s (prior to thrombin addition) and 10-140 s (in 10 s intervals) 10 μl 160 IU/ml heparin in 6% BSA-PBS were added. The turbidity increase at 405 nm as a function of incubation time (3-20 min) was determined.

IC50 [1] | IC50 [2] | heparin concentrations that completely inhibit thrombin [4] | time window in which heparin can inhibit fibrin generation ([5]; RT) | time point of heparin addition that results into a 50% decrease of ΔA (ITP50) ([5]; ΔA at 5-20 min incubation time (RT)) | Compound | increase of reactivity with vancomycin, % of the citrate control value [3]
~2000 µM | 2000 µM | – | – | – | Cc1ccc(S(=O)(=O)[N-]Cl)cc1.[Na+] [chloramine-T®, chloramine-T] | 40%
– | – | ≥ 0.63 IU/ml | ≤ 2 min | approximately 30 s | heparin | –
